In patent US7858635B2 (priority 2005, dated 2010):

What was measured:
M1 muscarinic receptor = target: T1, M1 muscarinic receptor (Homo sapiens, UniProt P11229); test: Functional mobilization of intracellular calcium (FLIPR, Fluo-3), M1-CHO cells; type: cell-based; details: compound nos. 1-454; for Emax: 100% efficacy is the maximum response obtained with the Carbachol control, read-out: M1 Efficacy
T1 construct: expressed in transfected cells; host or cells: CHO cells (M1-CHO, under zeocin and G418 selection)
T1 sequence (P11229 1-460): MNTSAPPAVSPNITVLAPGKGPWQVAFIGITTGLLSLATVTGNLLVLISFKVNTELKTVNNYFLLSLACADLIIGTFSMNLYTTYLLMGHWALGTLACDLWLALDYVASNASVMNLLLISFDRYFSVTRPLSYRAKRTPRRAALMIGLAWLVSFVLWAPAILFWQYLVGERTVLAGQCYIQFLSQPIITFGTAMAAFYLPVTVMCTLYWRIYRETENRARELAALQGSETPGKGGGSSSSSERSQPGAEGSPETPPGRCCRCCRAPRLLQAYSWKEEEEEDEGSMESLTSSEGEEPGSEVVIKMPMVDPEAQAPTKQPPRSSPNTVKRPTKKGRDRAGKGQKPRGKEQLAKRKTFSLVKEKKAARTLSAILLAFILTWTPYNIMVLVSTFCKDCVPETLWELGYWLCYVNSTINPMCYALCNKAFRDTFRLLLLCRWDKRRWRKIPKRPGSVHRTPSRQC
Outline: (§1)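 CHO lines stably carrying the muscarinic subtype, dye-loaded with Fluo-3 at 37° C for 60-90 min, receive test compound in 0.5% DMSO. Agonist effects are read directly; antagonist effects against carbachol at EC80 after 15 min pre-incubation.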

M4 muscarinic receptor = target: T2, M4 muscarinic receptor (Homo sapiens, UniProt P08173); test: Functional mobilization of intracellular calcium (FLIPR, Fluo-3), M4-CHO cells; type: cell-based; details: compound nos. 1-454; for Emax: 100% efficacy is the maximum response obtained with the Carbachol control, read-out: M4 Efficacy
T2 construct: expressed in transfected cells; host or cells: CHO cells (M4-CHO, under puromycin, zeocin and blasticidin selection)
T2 sequence (P08173 1-479): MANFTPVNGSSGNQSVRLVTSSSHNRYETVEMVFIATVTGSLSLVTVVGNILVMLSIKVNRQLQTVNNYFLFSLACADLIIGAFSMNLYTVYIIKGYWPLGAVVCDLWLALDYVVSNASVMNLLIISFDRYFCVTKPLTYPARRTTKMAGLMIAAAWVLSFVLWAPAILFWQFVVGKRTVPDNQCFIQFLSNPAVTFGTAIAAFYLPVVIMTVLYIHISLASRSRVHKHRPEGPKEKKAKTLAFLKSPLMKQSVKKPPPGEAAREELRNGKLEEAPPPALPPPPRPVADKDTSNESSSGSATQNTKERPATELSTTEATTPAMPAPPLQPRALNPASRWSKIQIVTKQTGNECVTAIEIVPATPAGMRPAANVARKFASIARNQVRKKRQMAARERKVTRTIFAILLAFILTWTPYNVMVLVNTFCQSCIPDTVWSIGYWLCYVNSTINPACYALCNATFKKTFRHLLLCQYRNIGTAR
Outline: as §1

[1] = M1-CHO cells, calcium mobilization
[2] = M4-CHO cells, calcium mobilization

SMILES | Emax (M1 muscarinic receptor) [%] | M1 Activity (M1 muscarinic receptor; [1]) | Emax (M4 muscarinic receptor) [%] | M4 Activity (M4 muscarinic receptor; [2]) | M1 Activity (M1 muscarinic receptor) | M4 Activity (M4 muscarinic receptor)
CC(=O)N[C@H]1CC2(CCN(C3CCC[C@@H](C)C3)CC2)c2ccccc21 (stereo partly drawn) [compound 358] | 65 to 85 | +++ (activity was measured to be less than or equal to 0.7 μM) | 55 to 70 | ++ (activity was measured to be between 0.1 μM and 4.0 μM) |  | 
CCOC(=O)N1C2CCC1CC(N1CCC3(CC1)C[C@H](NC(C)=O)c1ccccc13)C2 (stereo partly drawn) [compound 359] | < 65 | ++ (activity was measured to be between 0.7 μM and 3.0 μM) | < 55 | ++ (activity was measured to be between 0.1 μM and 4.0 μM) |  | 
CCCOC(=O)N1C2CCC1CC(N1CCC3(CC1)CN(C(=O)N(C)C)c1ccc(F)cc13)C2 (stereo not drawn) [compound 360] | 65 to 85 | ++ (activity was measured to be between 0.7 μM and 3.0 μM) | < 55 | + (activity was measured to be greater than or equal to 4.0 μM) |  | 
CC(C)OC(=O)N1C2CCC1CC(N1CCC3(CC1)CN(C(=O)O[C@@H]1CCOC1)c1ccc(F)cc13)C2 (stereo partly drawn) [compound 361] | < 65 | ++ (activity was measured to be between 0.7 μM and 3.0 μM) | < 55 | + (activity was measured to be greater than or equal to 4.0 μM) |  | 
CCOC(=O)N1C2CCC1CC(N1CCC3(CC1)CN(C(=O)N(C)C)c1ccc(F)cc13)C2 (stereo not drawn) [compound 362] | 65 to 85 | ++ (activity was measured to be between 0.7 μM and 3.0 μM) | < 55 | + (activity was measured to be greater than or equal to 4.0 μM) |  | 
O=C(OCC1CCCO1)N1C2CCC1CC(N1CCC3(CC1)COc1ccc(F)cc13)C2 (stereo not drawn) [compound 363] | < 65 | ++ (activity was measured to be between 0.7 μM and 3.0 μM) | < 55 | + (activity was measured to be greater than or equal to 4.0 μM) |  | 
C#CCOC(=O)N1CCC(CN2CCC3(CC2)C[C@H](NC(C)=O)c2ccccc23)CC1 [compound 364] | > 85 | +++ (activity was measured to be less than or equal to 0.7 μM) | < 55 | + (activity was measured to be greater than or equal to 4.0 μM) |  | 
CCOC(=O)N1C2CCC1CC(N1CCC3(CCc4ccccc43)CC1)C2 (stereo not drawn) [compound 365] | 65 to 85 | +++ (activity was measured to be less than or equal to 0.7 μM) | < 55 | + (activity was measured to be greater than or equal to 4.0 μM) |  | 
CC(=O)N1CC2(CCN(CC3CC4CCC3CC4)CC2)c2cc(F)ccc21 (stereo not drawn) [compound 366] | < 65 | ++ (activity was measured to be between 0.7 μM and 3.0 μM) | < 55 | + (activity was measured to be greater than or equal to 4.0 μM) |  | 
CCC1CCC(N2CCC3(CC2)C[C@H](NC(C)=O)c2ccccc23)CC1 (stereo partly drawn) [compound 367] | < 65 | + (activity was measured to be greater than or equal to 3.0 μM) | < 55 | + (activity was measured to be greater than or equal to 4.0 μM) |  | 
CCOC(=O)N1C2CCC1CC(CN1CCC3(CC1)CNc1ccc(F)cc13)C2 (stereo not drawn) [compound 368] | < 65 | +++ (activity was measured to be less than or equal to 0.7 μM) | < 55 | ++ (activity was measured to be between 0.1 μM and 4.0 μM) |  | 
Clc1ccc2c(c1)C1(CCO2)CCN([C@@H]2C[C@@H]3CC[C@@H]2C3)CC1 [compound 369] | > 85 | +++ (activity was measured to be less than or equal to 0.7 μM) | > 70 | ++ (activity was measured to be between 0.1 μM and 4.0 μM) |  | 
CCOC(=O)N1CCC(N2CCC3(CC2)CN(C(=O)OCCF)c2ccc(F)cc23)CC1 [compound 370] | 65 to 85 | +++ (activity was measured to be less than or equal to 0.7 μM) | > 70 | ++ (activity was measured to be between 0.1 μM and 4.0 μM) |  | 
CCOC(=O)N1C2CCC1CC(N1CCC3(CC1)CN(C(C)=O)c1ccc(F)cc13)C2 (stereo not drawn) [compound 371] | 65 to 85 | +++ (activity was measured to be less than or equal to 0.7 μM) | > 70 | + (activity was measured to be greater than or equal to 4.0 μM) |  | 
Cc1ccc2c(c1)C1(CCN(CC3CC4CCC3O4)CC1)CN2 (stereo not drawn) [compound 372] | 65 to 85 | +++ (activity was measured to be less than or equal to 0.7 μM) | > 70 | ++ (activity was measured to be between 0.1 μM and 4.0 μM) |  | 
CCOC(=O)N1CCC(N2CCC3(CC2)CN(C(C)=O)c2ccc(-c4cccc(C#N)c4)cc23)CC1 [compound 373] | 65 to 85 | +++ (activity was measured to be less than or equal to 0.7 μM) | > 70 | ++ (activity was measured to be between 0.1 μM and 4.0 μM) |  | 
COC(=O)N1CCC(N2CCC3(CC2)CN(C(C)=O)c2ccc(F)cc23)CC1 [compound 374] | 65 to 85 | ++ (activity was measured to be between 0.7 μM and 3.0 μM) | 55 to 70 | + (activity was measured to be greater than or equal to 4.0 μM) |  | 
c1ccc2c(c1)NCC21CCN(C2CCCCC2)CC1 [compound 375] | > 85 |  | 55 to 70 |  | +++ (activity was measured to be less than or equal to 0.7 μM) | +++ (activity was measured to be less than or equal to 0.1 μM)
Fc1ccc2c(c1)C1(CCN(C[C@H]3C[C@H]4C=C[C@H]3C4)CC1)CO2 [compound 376] | 65 to 85 |  | 55 to 70 |  | +++ (activity was measured to be less than or equal to 0.7 μM) | + (activity was measured to be greater than or equal to 4.0 μM)
Fc1ccc2c(c1)C1(CCN(C3CC4CCC(C4)C3)CC1)CN2 (stereo not drawn) [compound 377] | 65 to 85 |  | 55 to 70 |  | +++ (activity was measured to be less than or equal to 0.7 μM) | ++ (activity was measured to be between 0.1 μM and 4.0 μM)
COCCOC(=O)N1C2CCC1CC(N1CCC3(CC1)COc1ccc(F)cc13)C2 (stereo not drawn) [compound 378] | 65 to 85 |  | 55 to 70 |  | ++ (activity was measured to be between 0.7 μM and 3.0 μM) | + (activity was measured to be greater than or equal to 4.0 μM)
O=C(C1CC1)N1CC2(CCN(C3CC4CCC(C3)N4C(=O)OC3CCC3)CC2)c2cc(F)ccc21 (stereo not drawn) [compound 379] | 65 to 85 |  | 55 to 70 |  | +++ (activity was measured to be less than or equal to 0.7 μM) | ++ (activity was measured to be between 0.1 μM and 4.0 μM)
CC(=O)N1CC2(CCN(C3CCN(C(=O)OC(C)C)CC3)CC2)c2cc(C)ccc21 [compound 380] | 65 to 85 |  | 55 to 70 |  | +++ (activity was measured to be less than or equal to 0.7 μM) | ++ (activity was measured to be between 0.1 μM and 4.0 μM)
CCOC(=O)N1CCC(N2CCC3(CC2)CN(C(C)=O)c2c(F)cccc23)CC1 [compound 381] | 65 to 85 |  | < 55 |  | +++ (activity was measured to be less than or equal to 0.7 μM) | + (activity was measured to be greater than or equal to 4.0 μM)
